Assay results from patent US7915245B2, “Methods and compositions of trail-death receptor agonists/activators” (The Board of Regents of the University of Texas System, priority 2007, dated 2011).

What was measured:
AsPC-1 cells = experiment: XTT cell viability with caspase inhibitor pretreatment, AsPC-1; format: cell-based, human; conditions: then DRA 72 h; for effect of caspase-3 inhibitor (z-DEVD-fmk) on the DRA effect on cell viability: Z-DEVD-fmk 25 μM 2 h pretreatment; for effect of caspase-8 inhibitor (Ac-IETD-CHO) on the DRA effect on cell viability: caspase-8 inhibitor 25 μM 2 h pretreatment; for effect of pan caspase inhibitor (z-VAD-fmk) on the DRA effect on cell viability: inhibitor 25 μM 2 h pretreatment
Experimental: (§1) FIG. 5. […] AsPC-1 cells were pretreated with either control peptide (25 μM) or caspase-3 inhibitor (Z-DEVD-fmk, 25 μM) for 2 h, followed by treatment with various doses of DRA11, DRA9 and DRA9S for 72 h. At the end of incubation, cell viability was measured by XTT assay. Data represent the mean±S.D. Control refers to a group treated with DMSO (0.01%).
as §1, with “6.” for “5.”, “caspase-8” for “caspase-3”, “(25” for “(Z-DEVD-fmk, 25”
as §1, with “7.” for “5.”, “caspase-8” for “caspase-3”, “(25” for “(Z-DEVD-fmk, 25”
(§2) XTT Assay. Cells (1×10^4 cells per well) were seeded in 96-well plates (flat bottom), and treated with death receptor agonists/activators/small molecules in the presence or absence of TNF-related apoptosis inducing ligand (TRAIL). Plates were incubated for various time points at 37° C. and 5% CO2. Before the end of the experiment, 50 μl XTT (sodium 3′[1-(phenylaminocarbonyl)-3,4-tetrazolium]-bis(4-methoxy-6-nitro) benzene sulfonic acid hydrate) labeling mixture (final concentration, 125 μM sodium XTT and 25 μM PMS) per well was added and plates were incubated for a further 4 h at 37° C. and 5% CO2. The spectrophotometric absorbance of the sample was measured using a microtitre plate (ELISA) reader. The wavelength to measure absorbance of the formazan product was 450 nm, and the reference wavelength was 650 nm.
(§3) AsPC-1 cells were pretreated with either control peptide (25 μM) or caspase-3 inhibitor (Z-DEVD-fink, 25 μM) for 2 h, followed by treatment with various doses of DRA11, DRA9 and DRA9S for 72 h. At the end of incubation, cell viability was measured by XTT assay. See, for example, FIG. 5. Data represent the mean±S.D. Control refers to a group treated with DMSO (0.01%).
as §3, with “caspase-8” for “caspase-3”, “(25” for “(Z-DEVD-fink, 25”, “6.” for “5.”
as §3, with “caspase-8” for “caspase-3”, “(25” for “(Z-DEVD-fink, 25”, “7.” for “5.”

[1] = tested on: human normal prostate epithelial cells (PrECs); experiment: XTT cell viability, normal prostate epithelial cells; format: cell-based; conditions: 72 h
Experimental: (§4) FIG. 22. DRAs have no effect on cell viability in human normal prostate epithelial cells (PrECs). PrECs were treated with DRA11, DRA9 and DRA9S for 72 h. At the end of incubation period, cell viability was measured by XTT assay. Data represent the mean±S.D. Control refers to group treated with DMSO (0.01%).
FIGS. 60 A, B & C. DRAs has no effect on cell viability of human normal mammary, prostate and lung epithelial cells. Human normal mammary (FIG. 60A), prostate (FIG. 60B) and lung (FIG. 60C) epithelial cells were treated with DRA11 (0-25 μM) for 72 h, and cell viability was measured by XTT assay.
XTT Assay. Cells (1×10^4 cells per well) were seeded in 96-well plates (flat bottom), and treated with death receptor agonists/activators/small molecules in the presence or absence of TNF-related apoptosis inducing ligand (TRAIL). Plates were incubated for various time points at 37° C. and 5% CO2. […] The spectrophotometric absorbance of the sample was measured using a microtitre plate (ELISA) reader. The wavelength to measure absorbance of the formazan product was 450 nm, and the reference wavelength was 650 nm.
PrECs were treated with DRA11, DRA9 and DRA9S for 72 h. At the end of incubation period, cell viability was measured by XTT assay. […]

[2] = tested on: human bronchial epithelial cells (Beas2B); experiment: XTT cell viability, bronchial epithelial cells; format: cell-based; conditions: 72 h
Experimental: as §4, with “23.” for “22.”, “bronchial” for “normal prostate”, “(Beas2B). Beas2B cells” for “(PrECs). PrECs”
as §2
Beas2B cells were treated with DRA11, DRA9 and DRA9S for 72 h. At the end of incubation period, cell viability was measured by XTT assay. See, for example, FIG. 23. Data represent the mean ±S.D. Control refers to group treated with DMSO (0.01%).

[3] = tested on: mesothelioma M9K cell line; experiment: XTT cell viability, mesothelioma M9K; format: cell-based; conditions: then DRA 72 h; for effect of NFκB inhibitor MG132 on the inhibitory effect on cell viability: MG132 2.5 μM 4 h; for effect of pan caspase inhibitor (z-VAD-fmk) on the inhibitory effect on cell viability: z-VAD-fmk 25 μM 2 h pretreatment
Experimental: FIG. 43. […] Mesothelioma M9K cells were treated with NFκB inhibitor MG132 (2.5 μM) for 4 h followed by treatment with various concentrations of DRA11, DRA9, and DRA9S for 72 h. At the end of incubation, cell viability was measured by XTT assay. Data represent the mean±S.D.
(§5) FIG. 52. […] M9K cells were pretreated with either control peptide (10 μM) or pan caspase inhibitor (z-VAD-fmk, 25 μM) for 2 h, followed by treatment with various doses of DRA11, DRA9 and DRA9S for 72 h. At the end of incubation, cell viability was measured by XTT assay. Data represent the mean±S.D.
as §2

[4] = tested on: mesothelioma REN cell line; experiment: XTT cell viability, mesothelioma REN; format: cell-based; conditions: then DRA 72 h; for effect of NFκB inhibitor MG132 on the inhibitory effect on cell viability: MG132 2.5 μM 4 h
Experimental: FIG. 45. […] Mesothelioma REN cells were treated with NFκB inhibitor MG132 (2.5 μM) for 4 h followed by treatment with various concentrations of DRA11, DRA9, and DRA9S for 72 h. At the end of incubation, cell viability was measured by XTT assay. Data represent the mean±S.D.
as §5, with “55.” for “52.”, “REN” for “M9K”, “(z-VAD-fink,” for “(z-VAD-fmk,”
as §2

| Compound | effect of caspase-3 inhibitor (z-DEVD-fmk) on the DRA effect on cell viability (AsPC-1 cells) | effect of caspase-8 inhibitor (Ac-IETD-CHO) on the DRA effect on cell viability (AsPC-1 cells) | effect of pan caspase inhibitor (z-VAD-fmk) on the DRA effect on cell viability (AsPC-1 cells) | effect on cell viability in PrECs [1] | effect on cell viability in Beas2B cells [2] | effect of NFκB inhibitor MG132 on the inhibitory effect on cell viability [3] | effect of pan caspase inhibitor (z-VAD-fmk) on the inhibitory effect on cell viability [3] | effect of NFκB inhibitor MG132 on the inhibitory effect on cell viability [4] | effect of pan caspase inhibitor (z-VAD-fmk) on the inhibitory effect on cell viability ([4]; z-VAD-fmk 25 μM 2 h pretreatment) |
| --- | --- | --- | --- | --- | --- | --- | --- | --- | --- |
| CCOc1cc(Br)c(Br)c(/C=N/c2cccc(C(=O)O)c2C)c1O [DRA9S] | blocks the effects | blocks the effects | blocks effects | no effect | no effect | enhances the inhibitory effects | blocks the inhibitory effects | enhances the inhibitory effects | – |
| CCOc1cc(Br)c(Br)c(/C=N/c2cccc(C(=O)O)c2)c1O [DRA9] | blocks the effects | blocks the effects | blocks effects | no effect | no effect | enhances the inhibitory effects | blocks the inhibitory effects | enhances the inhibitory effects | blocks the inhibitory effects |
